Target: T1, Dual specificity protein kinase TTK (Homo sapiens, UniProt P33981)
T1 sequence (P33981 whole entry): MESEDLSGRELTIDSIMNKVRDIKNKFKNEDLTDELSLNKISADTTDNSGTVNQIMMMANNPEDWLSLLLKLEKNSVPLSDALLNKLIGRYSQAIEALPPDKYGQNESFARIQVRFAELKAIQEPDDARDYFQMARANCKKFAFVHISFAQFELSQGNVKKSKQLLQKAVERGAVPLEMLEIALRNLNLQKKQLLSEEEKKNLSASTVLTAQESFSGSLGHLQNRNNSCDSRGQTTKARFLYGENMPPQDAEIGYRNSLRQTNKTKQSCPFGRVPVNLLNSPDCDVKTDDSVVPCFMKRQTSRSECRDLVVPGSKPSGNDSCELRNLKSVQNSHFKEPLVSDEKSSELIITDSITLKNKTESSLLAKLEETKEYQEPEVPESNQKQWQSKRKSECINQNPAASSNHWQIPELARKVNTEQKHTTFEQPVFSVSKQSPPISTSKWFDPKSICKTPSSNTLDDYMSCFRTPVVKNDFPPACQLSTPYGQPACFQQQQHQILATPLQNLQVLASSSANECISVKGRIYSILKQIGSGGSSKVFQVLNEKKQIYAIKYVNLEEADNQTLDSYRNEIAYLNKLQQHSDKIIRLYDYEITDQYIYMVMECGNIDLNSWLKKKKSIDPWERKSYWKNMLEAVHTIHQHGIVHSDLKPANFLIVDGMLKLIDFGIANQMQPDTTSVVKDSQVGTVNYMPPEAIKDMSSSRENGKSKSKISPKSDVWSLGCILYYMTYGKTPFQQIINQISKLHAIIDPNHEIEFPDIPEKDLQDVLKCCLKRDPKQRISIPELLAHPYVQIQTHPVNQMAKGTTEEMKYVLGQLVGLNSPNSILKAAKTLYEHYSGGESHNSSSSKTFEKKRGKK
Assay: Kinase Assay: For the assay 50 nL of a 100-fold concentrated solution of the test compound in DMSO was pipetted into a black low volume 384 well microtiter plate (Greiner Bio-One, Frickenhausen, Germany), 2 ul of a solution of Mps-1 in assay buffer [0.1 mM sodium-ortho-vanadate, 10 mM MgCl2, 2 mM DTT, 25 mM Hepes pH 7.7, 0.05% BSA, 0.001% Pluronic F-127] were added and the mixture was incubated for 15 min at 22° C. to allow pre-binding of the test compounds to Mps-1 before the start of the kinase reaction. Then the kinase reaction was started by the addition of 3 ul of a solution of 16.7 adenosine-tri-phosphate (ATP, 16.7 uM=>final conc. in the 5 ul assay volume is 10 uM) and peptide substrate (1.67 uM=>final conc. in the 5 ul assay volume is 1 uM) in assay buffer and the resulting mixture was incubated for a reaction time of 60 min at 22° C. The concentration of Mps-1 in the assay was adjusted to the activity of the enzyme lot.

Compound: CCCSc1cn2c(-c3ccc(C(=O)NC4CC4)c(C)c3)cnc2c(NCC(C)(C)O)n1
- IC50: 52.1 nM
